Measured values reported in patent US4855320A, “5-arylalkyl-4-alkoxy-2(5H)-furanones, intermediates and processes for the preparation thereof and medicaments containing them” (Dr. Willmar Schwabe GmbH & Company, priority 1986, dated 1989).

System: maximum electroshock spasm (MES) in male mice (NMRI)
Experiment: MES test (maximum electroshock spasm), inhibition of the extensor spasm
Type: in vivo
Settings: mice; for ED50: oral, 1 hour after administration, read-out: ED 50 in the MES test
[1] = Mus musculus, po, 100 mg/kg p.o., 1 hr., % of animals protected 100% against the extensor spasm, read-out: protective action after 1 hr. (MES test)
[2] = Mus musculus, po, 50 mg/kg p.o., 1 hr., read-out: protective action after 1 hr. (MES test)

Row | Molecule | responders at 100 mg/kg [1] [%] | also measured
1 | COC1=CC(=O)O[C@H]1[C@H](O)c1ccccc1C(F)(F)F (relative stereo) [Example 71, threo-4-methoxy-5-(2-trifluoromethylphenylhydroxymethyl)-2-(5H)-furanone] | 100 | 
2 | COC1=CC(=O)O[C@H]1[C@H](O)c1cc(Cl)cc(Cl)c1 (relative stereo) [Example 84, threo-5-(3,5-dichlorophenylhydroxymethyl)-4-methoxy-2(5H)-furanone] | 70 | 
3 | COC1=CC(=O)O[C@H]1[C@H](O)c1ccc(Cl)cc1 (relative stereo) [Example 67, threo-5-(4-chlorophenylhydroxymethyl)-4-methoxy-2(5H)-furanone] | 75 | ED50 (Mus musculus): 73.5 mg/kg
4 | COC1=CC(=O)O[C@H]1[C@H](O)c1cc(C(F)(F)F)ccc1Cl (relative stereo) [Example 86] |  | responders at 50 mg/kg [2]: 100%
5 | COC1=CC(=O)O[C@H]1[C@H](OC)c1ccccc1Cl (relative stereo) [Example 110, threo-4-methoxy-5-[methoxy-(2-chlorophenyl)-methyl]-2(5H)-furanone] | 100 | ED50 (Mus musculus): 27.5 mg/kg
6 | COC1=CC(=O)O[C@H]1[C@H](O)c1ccccc1C (relative stereo) [Example 93, threo-4-methoxy-5-(2-methylphenylhydroxymethyl)-2(5H)-furanone] | 37.5 | 
7 | COCO[C@H](c1ccc(Cl)cc1Cl)[C@@H]1OC(=O)C=C1OC (relative stereo) [Example 114, threo-4-methoxy-5-[methoxymethoxy-(2,4-dichlorophenyl)-methyl]-2(5H)-furanone] | 10 | 
8 | COC1=CC(=O)O[C@H]1[C@H](O)c1ccccc1F (relative stereo) [Example 70, threo-5-(2-fluorophenylhydroxymethyl)-4-methoxy-2(5H)-furanone] | 100 | ED50 (Mus musculus): 22 mg/kg
9 | CCCOC1=CC(=O)O[C@H]1[C@H](O)c1ccccc1Cl (relative stereo) [Example 99, threo-5-(2-chlorophenylhydroxymethyl)-4-propoxy-2-(5H)-furanone] | 90 | 
10 | COC1=CC(=O)O[C@H]1[C@H](OC)c1ccccc1F (relative stereo) [Example 123, threo-4-methoxy-5-[methoxy-(2-fluorophenyl)-methyl]-2(5H)-furanone] |  | responders at 50 mg/kg [2]: 100%
11 | COC1=CC(=O)O[C@H]1[C@H](OC)c1cc(Cl)ccc1Cl (relative stereo) [Example 112, threo-4-methoxy-5-[methoxy-(2,5-dichlorophenyl)-methyl]-2(5H)-furanone] | 100 | 
12 | CCOC1=CC(=O)O[C@H]1[C@H](OC)c1ccc(Cl)cc1Cl (relative stereo) [Example 106, threo-4-Ethoxy-5-[methoxy-(2,4-dichlorophenyl)-methyl]-2(5H)-furanone] | 30 | 
13 | COC1=CC(=O)O[C@H]1[C@H](O)c1cccc(F)c1 (relative stereo) [Example 96, threo-5-(3-fluorophenylhydroxymethyl)-4-methoxy-2-(5H)-furanone] | 62.5 | ED50 (Mus musculus): 74 mg/kg
14 | COCCOCO[C@H](c1ccccc1Cl)[C@@H]1OC(=O)C=C1OC (relative stereo) [Example 108, threo-4-Methoxy-5-[methoxyethoxymethoxy-(2-chlorophenyl)-methyl]-2(5H)-furanone] | 70 | 
15 | COC1=CC(=O)O[C@H]1[C@H](O)c1cccc(C(F)(F)F)c1 (relative stereo) [Example 72, threo-4-methoxy-5-(3-trifluoromethylphenylhydroxymethyl)-2(5H)-furanone] | 80 | 
16 | COC1=CC(=O)O[C@H]1[C@H](O)c1ccc(C(F)(F)F)cc1 (relative stereo) [Example 73, threo-4-methoxy-5-(4-trifluoromethylphenylhydroxymethyl)-2(5H)-furanone] | 60 | 
17 | COC1=CC(=O)O[C@H]1[C@H](O)c1ccc(Br)cc1 (relative stereo) [Example 100, threo-5-(4-bromophenylhydroxymethyl)-4-methoxy-2(5H)-furanone] | 100 | ED50 (Mus musculus): 67 mg/kg
18 | CCOC1=CC(=O)O[C@H]1[C@H](O)c1ccccc1Cl (relative stereo) [Example 66, threo-5-(2-chlorophenylhydroxymethyl)-4-ethoxy-2(5H)-furanone] | 100 | 
19 | COC1=CC(=O)O[C@H]1[C@H](O)c1ccc(Cl)cc1C(F)(F)F (relative stereo) [Example 87, threo-5-[(4-chloro-2-trifluoromethylphenyl)-hydroxymethyl]-4-methoxy-2(5H)-furanone] | 40 | 
20 | CCOC1=CC(=O)O[C@H]1[C@H](O)c1cc(Cl)ccc1Cl (relative stereo) [Example 82, threo-5-(2,5-dichlorophenylhydroxymethyl)-4-ethoxy-2(5H)-furanone] |  | responders at 150 mg/kg (Mus musculus, po, 150 mg/kg p.o., 1 hr., read-out: protective action after 1 hr. (MES test)): 90%

Row | Molecule | responders at 100 mg/kg [1] [%] | also measured
21 | COCO[C@H](c1ccccc1C)[C@@H]1OC(=O)C=C1OC (relative stereo) [Example 116, threo-4-methoxy-5-[methoxymethoxy-(2-methylphenyl)-methyl]-2(5H)-furanone] | 70 | 
22 | COCC(OC)O[C@H](c1ccccc1Cl)[C@@H]1OC(=O)C=C1OC (stereo partly drawn) [Example 121, threo-5-[1',2'-dimethoxyethoxy-(2-chlorophenyl)-methyl]-4-methoxy-2(5H)-furanone] |  | responders at 50 mg/kg [2]: 70%
23 | COC1=CC(=O)O[C@H]1[C@H](OC)c1ccccc1Br (relative stereo) [Example 124, threo-4-methoxy-5-[methoxy-(2-bromophenyl)-methyl]-2(5H)-furanone] |  | responders at 50 mg/kg [2]: 100%
24 | COC1=CC(=O)O[C@H]1[C@H](O)c1cccc(Br)c1 (relative stereo) [Example 69, threo-5-(3-bromophenylhydroxymethyl)-4-methoxy-2(5H)-furanone] | 70 | ED50 (Mus musculus): 93 mg/kg
25 | COC1=CC(=O)O[C@H]1[C@H](O)c1ccccc1[N+](=O)[O-] (relative stereo) [Example 74, threo-4-methoxy-5-(2-nitrophenylhydroxymethyl)-2(5H)-furanone] | 100 | 
26 | COC1=CC(=O)O[C@H]1[C@H](O)c1ccccc1Br (relative stereo) [Example 68, threo-5-(2-bromophenylhydroxymethyl)-4-methoxy-2(5H)-furanone] | 100 | ED50 (Mus musculus): 23.5 mg/kg
27 | COC1=CC(=O)O[C@H]1[C@H](O)c1ccc(Br)cc1Cl (relative stereo) [Example 88, threo-5-[(4-bromo-2-chlorophenyl)-hydroxymethyl]-4-methoxy-2(5H)-furanone] | 80 | 
28 | threo-5-[1'-ethoxypropoxy-(2-chlorophenyl)-methyl]-4-methoxy-2-(5H)-furanone [Example 122] |  | protective action after 1 hr. (MES test) (50 mg/kg p.o., 1 hr.): 100%
29 | COC1=CC(=O)O[C@H]1[C@H](O)c1ccc(Cl)c(Cl)c1 (relative stereo) [Example 83, threo-5-(3,4-dichlorophenylhydroxymethyl)-4-methoxy-2(5H)-furanone] | 50 | 
30 | COCO[C@H](c1ccccc1F)[C@@H]1OC(=O)C=C1OC (relative stereo) [Example 115, threo-4-methoxy-5-[methoxymethoxy-(2-fluorophenyl)-methyl]2(5H)-furanone] | 100 | 
31 | COC1=CC(=O)O[C@@]1(C)[C@H](O)c1ccccc1Cl (relative stereo) [Example 89, threo-5-(2-Chlorophenylhydroxymethyl)-4-methoxy-5-methyl-2(5H)-furanone] | 100 | 
32 | COC1=CC(=O)O[C@H]1[C@H](O)CCc1ccccc1 (relative stereo) [Example 105, threo-4-methoxy-5-(α-hydroxy-γ-phenylpropyl)-2(5H)-furanone] | 12.5 | 
33 | COC1=CC(=O)O[C@H]1[C@H](OC)c1ccc(Cl)cc1Cl (relative stereo) [Example 111, threo-4-methoxy-5-[methoxy-(2,4-dichlorophenyl)-methyl]-2(5H)-furanone] | 100 | 
34 | COCO[C@H](c1ccccc1Cl)[C@@H]1OC(=O)C=C1OC (relative stereo) [Example 107, threo-4-Methoxy-5-[methoxymethoxy-(2-chlorophenyl)-methyl]-2(5H)-furanone] | 100 | ED50 (Mus musculus): 24.5 mg/kg
35 | COC1=CC(=O)O[C@H]1[C@H](O)c1c(Cl)cccc1Cl (relative stereo) [Example 103, threo-5-(2,6-dichlorophenylhydroxymethiyl)-4-methoxy-2(5H)-furanone] | 100 | ED50 (Mus musculus): 37 mg/kg
36 | COCO[C@H](c1ccccc1Br)[C@@H]1OC(=O)C=C1OC (relative stereo) [Example 118, threo-4-methoxy-5-[methoxymethoxy-(2-bromophenyl)-methyl]-2(5H)-furanone] | 100 | 
37 | COC1=CC(=O)O[C@H]1[C@H](OC)c1ccccc1 (relative stereo) [Example 109, threo-4-methoxy-5-[methoxy-(phenyl)-methyl]-2(5H)-furanone] | 40 | 
38 | threo-4-methoxy-5-(α-hydroxy-β-phenylethyl)-2(5H)-furanone [Example 104] |  | protective action after 1 hr. (MES test) (100 mg/kg p.o., 1 hr., % of animals protected 100% against the extensor spasm): 37.5%
39 | COC1=CC(=O)O[C@H]1[C@H](O)c1c(F)cccc1Cl (relative stereo) [Example 102, threo-5-(2-chloro-6-fluorophenylhydroxymethyl)-4-methoxy-2(5H)-furanone] | 62.5 | 
40 | COCO[C@H](c1ccccc1)[C@@H]1OC(=O)C=C1OC (relative stereo) [Example 113, threo-4-methoxy-5-[methoxymethoxy-(phenyl)-methyl]-2(5H)-furanone] | 100 | 
